Some targets named below: CDK4 CCND3 (human) (UniProt P30281+P11802); CDK4 CCND1 (human) (UniProt P24385+P11802); CDK5 CDK5R1 p35 (human) (UniProt Q00535+Q15078); CDK1 CCNB1 (human) (UniProt P06493+P14635); LTK (human) (UniProt P29376); CDK2 CCNE1 (human) (UniProt P24941+P24864); STK33 (human) (UniProt Q9BYT3); CDK7 CCNH MNAT1 (human) (UniProt P50613+P51948+P51946); CDK2 CCNA2 (human) (UniProt P24941+P20248); CDK1 CCNA2 (human) (UniProt P06493+P20248); CDK9 CCNT1 (human) (UniProt P50750+O60563); CDK9 CCNK (human) (UniProt O75909+P50750); CDK6 CCND1 (human) (UniProt Q00534+P24385); MAP3K7 TAB1 (human) (UniProt O43318+Q15750); CDK3 CCNE1 (human) (UniProt Q00526+P24864); PRKCH (human) (UniProt P24723); CDK6 CCND3 (human) (UniProt P30281+Q00534); DYRK1B (human) (UniProt Q9Y463); CDK5 CDK5R1 p25 (human) (UniProt Q00535+Q15078); CSNK1A1 (human) (UniProt P48729); FYN (human) (UniProt P06241).

What all share (assay): radiometric filter-binding kinase assay, Kinase HotSpot
What all share (details): compound 0.5 µM; ATP 10 µM

Sequence of DYRK1B (human) (Q9Y463 whole entry, looked up): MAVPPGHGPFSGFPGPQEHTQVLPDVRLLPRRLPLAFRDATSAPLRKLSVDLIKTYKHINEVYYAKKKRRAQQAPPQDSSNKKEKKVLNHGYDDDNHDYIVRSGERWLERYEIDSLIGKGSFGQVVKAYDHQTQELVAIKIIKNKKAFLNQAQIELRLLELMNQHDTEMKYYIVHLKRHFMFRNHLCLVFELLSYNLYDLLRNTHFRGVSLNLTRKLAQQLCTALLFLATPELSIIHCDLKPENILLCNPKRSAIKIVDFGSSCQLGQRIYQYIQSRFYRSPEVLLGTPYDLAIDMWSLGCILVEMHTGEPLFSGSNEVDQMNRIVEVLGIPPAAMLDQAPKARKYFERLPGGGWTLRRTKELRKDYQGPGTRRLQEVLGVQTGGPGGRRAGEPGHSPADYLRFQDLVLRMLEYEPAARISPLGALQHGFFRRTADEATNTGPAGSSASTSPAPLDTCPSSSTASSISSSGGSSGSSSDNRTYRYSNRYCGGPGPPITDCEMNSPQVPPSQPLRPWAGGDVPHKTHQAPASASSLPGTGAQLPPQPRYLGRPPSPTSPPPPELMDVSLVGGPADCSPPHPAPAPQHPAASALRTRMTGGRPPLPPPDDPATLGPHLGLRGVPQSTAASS
Sequence of PRKCH (human) (P24723 whole entry, looked up): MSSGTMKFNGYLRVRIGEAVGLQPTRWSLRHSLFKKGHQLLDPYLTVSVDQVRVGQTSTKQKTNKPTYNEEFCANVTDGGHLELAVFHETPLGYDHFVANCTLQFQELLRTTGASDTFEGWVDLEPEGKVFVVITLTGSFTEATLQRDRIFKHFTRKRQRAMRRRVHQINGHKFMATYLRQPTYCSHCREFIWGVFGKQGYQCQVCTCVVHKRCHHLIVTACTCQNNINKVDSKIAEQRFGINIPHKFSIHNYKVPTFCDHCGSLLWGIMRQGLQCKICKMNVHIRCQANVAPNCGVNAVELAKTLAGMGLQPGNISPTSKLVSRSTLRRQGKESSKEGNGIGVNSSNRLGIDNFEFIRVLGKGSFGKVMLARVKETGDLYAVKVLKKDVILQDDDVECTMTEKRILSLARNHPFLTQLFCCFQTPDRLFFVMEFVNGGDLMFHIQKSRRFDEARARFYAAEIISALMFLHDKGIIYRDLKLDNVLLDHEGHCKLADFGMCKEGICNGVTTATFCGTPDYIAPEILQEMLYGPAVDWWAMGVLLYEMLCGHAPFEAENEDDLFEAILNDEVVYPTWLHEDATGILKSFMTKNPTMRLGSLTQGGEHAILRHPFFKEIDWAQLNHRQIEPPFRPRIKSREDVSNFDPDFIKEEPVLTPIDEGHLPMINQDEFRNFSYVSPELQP
Sequence of CDK1 CCNB1 (human) (P06493 whole entry, looked up): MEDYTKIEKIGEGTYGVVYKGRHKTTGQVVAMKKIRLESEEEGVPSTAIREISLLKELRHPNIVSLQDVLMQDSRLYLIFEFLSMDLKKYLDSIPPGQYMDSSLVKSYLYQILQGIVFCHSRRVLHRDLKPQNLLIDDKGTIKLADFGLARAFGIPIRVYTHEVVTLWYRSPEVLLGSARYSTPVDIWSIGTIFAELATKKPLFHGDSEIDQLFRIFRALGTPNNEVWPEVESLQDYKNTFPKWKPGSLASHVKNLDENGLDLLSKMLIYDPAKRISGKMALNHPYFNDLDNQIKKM
Sequence of CDK1 CCNB1 (human) (P14635 whole entry, looked up): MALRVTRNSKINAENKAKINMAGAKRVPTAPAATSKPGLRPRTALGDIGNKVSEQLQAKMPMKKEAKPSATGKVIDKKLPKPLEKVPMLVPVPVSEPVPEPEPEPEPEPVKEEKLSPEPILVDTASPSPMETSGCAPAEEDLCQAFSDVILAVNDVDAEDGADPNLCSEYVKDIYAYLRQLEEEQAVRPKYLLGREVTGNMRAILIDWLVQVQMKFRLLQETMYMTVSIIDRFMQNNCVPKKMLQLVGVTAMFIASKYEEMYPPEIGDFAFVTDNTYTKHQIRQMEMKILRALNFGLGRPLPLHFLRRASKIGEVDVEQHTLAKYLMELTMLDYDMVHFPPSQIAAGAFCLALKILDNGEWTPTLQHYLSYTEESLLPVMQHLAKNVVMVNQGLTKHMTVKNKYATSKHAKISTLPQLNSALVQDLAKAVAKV
Sequence of CDK1 CCNA2 (human) (P06493 whole entry, looked up): as the sequence (P06493 whole entry, looked up) above
Sequence of CDK1 CCNA2 (human) (P20248 whole entry, looked up): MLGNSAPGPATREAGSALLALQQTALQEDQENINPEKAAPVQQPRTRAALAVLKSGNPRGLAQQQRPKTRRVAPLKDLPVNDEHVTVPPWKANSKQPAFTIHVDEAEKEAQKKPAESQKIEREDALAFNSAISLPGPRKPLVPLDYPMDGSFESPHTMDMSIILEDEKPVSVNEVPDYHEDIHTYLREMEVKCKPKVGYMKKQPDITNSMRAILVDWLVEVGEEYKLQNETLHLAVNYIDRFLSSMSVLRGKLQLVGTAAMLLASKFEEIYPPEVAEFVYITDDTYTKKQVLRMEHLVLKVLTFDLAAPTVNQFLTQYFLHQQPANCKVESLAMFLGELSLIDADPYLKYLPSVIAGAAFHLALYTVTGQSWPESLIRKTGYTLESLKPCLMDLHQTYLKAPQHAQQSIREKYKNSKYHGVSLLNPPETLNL
Sequence of LTK (human) (P29376 whole entry, looked up): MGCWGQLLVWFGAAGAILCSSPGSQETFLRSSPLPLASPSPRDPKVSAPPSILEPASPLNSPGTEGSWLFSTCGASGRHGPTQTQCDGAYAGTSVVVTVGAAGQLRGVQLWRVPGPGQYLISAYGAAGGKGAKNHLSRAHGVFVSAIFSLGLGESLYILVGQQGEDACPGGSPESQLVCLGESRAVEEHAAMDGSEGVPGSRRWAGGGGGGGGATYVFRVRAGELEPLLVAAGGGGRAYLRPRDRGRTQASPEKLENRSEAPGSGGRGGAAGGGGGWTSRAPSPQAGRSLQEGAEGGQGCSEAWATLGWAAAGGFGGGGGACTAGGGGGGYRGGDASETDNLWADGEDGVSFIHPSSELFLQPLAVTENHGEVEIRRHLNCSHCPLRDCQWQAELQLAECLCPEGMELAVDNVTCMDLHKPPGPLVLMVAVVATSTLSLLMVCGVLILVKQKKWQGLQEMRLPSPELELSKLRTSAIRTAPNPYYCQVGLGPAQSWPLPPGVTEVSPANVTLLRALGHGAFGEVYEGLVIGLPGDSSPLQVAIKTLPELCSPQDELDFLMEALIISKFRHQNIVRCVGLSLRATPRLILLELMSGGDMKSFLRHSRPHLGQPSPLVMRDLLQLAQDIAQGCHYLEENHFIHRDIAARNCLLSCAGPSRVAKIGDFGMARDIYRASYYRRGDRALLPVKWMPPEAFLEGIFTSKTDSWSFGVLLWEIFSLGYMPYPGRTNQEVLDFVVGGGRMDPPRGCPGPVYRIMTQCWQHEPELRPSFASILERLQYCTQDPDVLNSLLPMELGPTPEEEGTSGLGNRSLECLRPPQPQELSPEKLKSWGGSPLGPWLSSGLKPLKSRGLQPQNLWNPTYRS
Sequence of CDK3 CCNE1 (human) (P24864 whole entry, looked up): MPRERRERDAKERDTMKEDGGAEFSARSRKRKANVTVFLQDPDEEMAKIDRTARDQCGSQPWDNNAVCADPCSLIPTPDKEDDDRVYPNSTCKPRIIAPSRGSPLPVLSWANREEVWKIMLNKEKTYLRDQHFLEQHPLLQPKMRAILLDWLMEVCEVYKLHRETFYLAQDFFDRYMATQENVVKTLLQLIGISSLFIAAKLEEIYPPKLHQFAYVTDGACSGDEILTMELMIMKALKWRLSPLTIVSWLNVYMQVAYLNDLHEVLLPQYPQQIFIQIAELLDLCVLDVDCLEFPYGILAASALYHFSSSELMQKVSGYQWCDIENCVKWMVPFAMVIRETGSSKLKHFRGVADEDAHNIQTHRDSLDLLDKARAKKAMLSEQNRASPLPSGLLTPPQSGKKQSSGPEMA
Sequence of CDK3 CCNE1 (human) (Q00526 whole entry, looked up): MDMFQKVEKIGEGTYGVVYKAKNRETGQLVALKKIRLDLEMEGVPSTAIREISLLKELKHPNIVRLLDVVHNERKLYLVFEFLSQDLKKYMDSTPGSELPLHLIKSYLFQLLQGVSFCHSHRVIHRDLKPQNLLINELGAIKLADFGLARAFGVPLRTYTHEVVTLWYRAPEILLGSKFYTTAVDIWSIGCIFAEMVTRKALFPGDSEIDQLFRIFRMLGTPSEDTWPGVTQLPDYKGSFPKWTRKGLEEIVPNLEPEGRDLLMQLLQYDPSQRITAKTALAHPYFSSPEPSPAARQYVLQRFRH
Sequence of CDK2 CCNA2 (human) (P20248 whole entry, looked up, other chains not shown): as the sequence (P20248 whole entry, looked up) above
Sequence of STK33 (human) (Q9BYT3 whole entry, looked up): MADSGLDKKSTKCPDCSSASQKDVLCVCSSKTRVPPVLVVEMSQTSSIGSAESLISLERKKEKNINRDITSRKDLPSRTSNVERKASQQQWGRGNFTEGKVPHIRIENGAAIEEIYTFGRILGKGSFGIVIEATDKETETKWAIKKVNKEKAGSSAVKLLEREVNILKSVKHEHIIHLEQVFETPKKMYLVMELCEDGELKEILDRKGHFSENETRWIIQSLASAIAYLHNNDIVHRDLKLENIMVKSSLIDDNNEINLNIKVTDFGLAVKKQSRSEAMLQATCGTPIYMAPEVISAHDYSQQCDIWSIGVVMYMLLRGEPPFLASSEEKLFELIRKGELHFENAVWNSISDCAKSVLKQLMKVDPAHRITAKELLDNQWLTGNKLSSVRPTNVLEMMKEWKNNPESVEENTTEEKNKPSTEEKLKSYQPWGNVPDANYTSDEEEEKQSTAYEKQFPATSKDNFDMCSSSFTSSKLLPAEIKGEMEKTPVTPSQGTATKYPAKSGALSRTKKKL
Sequence of CDK2 CCNE1 (human) (P24864 whole entry, looked up, other chains not shown): as the sequence (P24864 whole entry, looked up) above

The term residual activity denotes the signal under treatment as a percentage of the control signal. `c1cc(-c2cnn3cc(-c4ccc(OCCN5CCCCC5)cc4)cnc23)ccn1`: the residual activity at CDK4 CCND3 (human) stood at 60.7%; on CDK4 CCND1 (human), 35.3%; at CDK5 CDK5R1 p35 (human), 67.7%; at CDK1 CCNB1 (human) it was 79.3%; on LTK (human), 95.4%; on CDK2 CCNE1 (human) it was 77.5%. Besides, the residual activity came out at 37.4% at STK33 (human); 83.7% on CDK7 CCNH MNAT1 (human); 87.7% on CDK2 CCNA2 (human); 92.2% at CDK1 CCNA2 (human); 65% at CDK9 CCNT1 (human); 36.7% on CDK9 CCNK (human). The residual activity on CDK6 CCND1 (human) came out at 21.2%; on MAP3K7 TAB1 (human) it was 49.7%; on CDK3 CCNE1 (human) it was 89.9%; at PRKCH (human) it was 95%; at CDK6 CCND3 (human) it was 14.8%; on DYRK1B (human), 26.2%. For the same compound, the residual activity at CDK5 CDK5R1 p25 (human) was 68.2%.
On to `Cc1ccc(NC(=O)c2ccc(CN3CCN(C)CC3)cc2)cc1Nc1nccc(-c2cccnc2)n1`, for which the residual activity came to 107% at CDK4 CCND3 (human); 97.5% on CDK4 CCND1 (human); 103% on CDK5 CDK5R1 p35 (human); 103% at CDK1 CCNB1 (human); 100% at LTK (human); 101% on CDK7 CCNH MNAT1 (human). In addition, the residual activity was found to be 100% at CDK9 CCNT1 (human); 103% at CDK9 CCNK (human); 99% on CDK6 CCND1 (human); 97.5% on CDK3 CCNE1 (human); 103% at CDK6 CCND3 (human); 97.9% at DYRK1B (human). Further, at CDK5 CDK5R1 p25 (human), the residual activity was 98.1%.
For `COc1cc(OC)c(/C=C2\C(=O)Nc3ccccc32)c(OC)c1`, the residual activity worked out at 59.6% on CSNK1A1 (human); 100% at FYN (human); 83% on CDK1 CCNB1 (human); 95.3% at LTK (human); 89.5% at STK33 (human); 96.3% at CDK2 CCNA2 (human). The residual activity was found to be 103% on CDK1 CCNA2 (human), 82.2% at PRKCH (human) and 99% at DYRK1B (human).
With `NC(=O)Nc1sc(-c2ccc(F)cc2)cc1C(N)=O`, the residual activity on PRKCH (human) amounted to 83.5%.
Regarding `O=C1c2ccccc2-[n+]2ccc3c([nH]c4ccccc43)c21`, the residual activity worked out at 121% on LTK (human); 80.3% at CDK2 CCNE1 (human); 101% on STK33 (human); 72.4% at CDK2 CCNA2 (human); 68% on CDK1 CCNA2 (human); 80.1% at CDK3 CCNE1 (human). The residual activity on PRKCH (human) was determined as 87.1%; at DYRK1B (human), 98.7%.
Regarding `NC(=O)c1ccc2[nH]c(-c3ccc(Oc4ccc(Cl)cc4)cc3)nc2c1`, the residual activity on PRKCH (human) is 93.4%.

Source of the values: the kinase profiling compilation of Christmann-Franck et al. (2016).
